The test system of series [1] is MDA-MB-231 cells. The series is described as follows: MTT cell proliferation assay. It is filed as cell-based, human. Particulars: 24 h of incubation, read-out: IC50 ±SEM MDA-MB-231. How it is done: (§1) MDA-MB-231 human breast tumor cells and MCF7 human breast tumor cells, obtained from Rio de Janeiro Cell Bank, were maintained at 37°C in 5% CO2 in DMEM medium containing fetal bovine serum (FBS) 10% (Vitrocell). MCF-10A, a non-tumor breast cell line, obtained from Rio de Janeiro Cell Bank, was cultivated in DMEM/F12 medium containing horse serum (HS) 5%, EGF (0.02 mg/mL); hydrocortisone (0.05 mg/mL); cholera toxin (0.001 mg/mL) and insulin (0.01 mg/mL). Both media contained penicillin (100 UI/mL), streptomycin ([…]) and L-glutamine (2 mM).
(§2) Proliferation assays were performed as described earlier. Briefly, cells lines were prepared in a concentration of 1x10^4 cells/100 μL, in complete medium (with 10% FBS), and plated on sterile 96-well plates for 24 h. The culture medium was removed from the wells and a new one, supplemented with 10% FBS and containing different concentrations of (1) [Ru(SO4)(dppb)(bipy)] (2) [Ru(CO3)(dppb)(bipy)], (3), [Ru(C2O4)(dppb)(bipy)], or (4) [Ru(CH3CO2)(dppb)(bipy)]PF6, was added to the wells. Cells were incubated for 24 h under the same conditions as described above. Cell proliferation assay was performed in comparison with untreated control. After incubation, the culture medium of each well was removed and a solution containing MTT (1 mg/mL) was added (100 μL/well). The plates were then kept at 37°C for 4 h and the formed crystals were dissolved in DMSO. The absorbance was read on an ELISA plate reader at a wavelength of 540 nm. […] The selectivity index (SI) was calculated as the ratio IC50 (MCF-10A) / IC50 (MDA-MB-231).
(§3) Each experiment was repeated three times in triplicate and a standard error mean was calculated. Shapiro-Wilk’s test was used to verify data normality. As normal distribution was present, the results were compared statistically with a one-way or two-way analysis of variance (ANOVA). […] The data were analysed and IC50 calculations were made using Hill’s equation in the GraphPad Prism software (version 6.05).
On the technique in general: Tetrazolium assays rely on reduction of a dye to a coloured formazan, in cell work by metabolically active cells.

Series [2] has as its system MCF-10A cells. The series is described as follows: MTT cell proliferation assay. The class given is cell-based, human. Particulars: 24 h of incubation, read-out: IC50 ±SEM MCF-10A. The method, then:
as §1, §2, §3

The subject of series [3] is MCF-7 cells. The experiment in a line: MTT cell proliferation assay. It is filed as cell-based, human. Particulars: 24 h of incubation, read-out: IC50 ±SEM MCF-7. The method, then: as §1, §2, §3
The target in series [4] is HSA (Homo sapiens, UniProt P02768). The experiment in a line: HSA tryptophan fluorescence quenching. The class given is binding. Particulars: for ΔS (HSA): complex-HSA system. How it is done: For fluorescence measurements, the HSA concentration in Tris–HCl buffer was kept constant in all the samples, while the complex concentration was increased from 0.50 to 50 μM, and quenching of the emission intensity of the HSA tryptophan residues at 305 nm (excitation wavelength 270 nm) was monitored at different temperatures (25°C and 37°C). The experiments were carried out in triplicate and analysed using the classical Stern-Volmer equation. The binding constant (Kb) and number of complexes bound to HSA (n) were determined by plotting the double log graph of the fluorescence data using: log [(F0-F)/F] = log Kb + nlog[Q]. The thermodynamic parameter (ΔH) was calculated from equation: ln (K2/K1) = [(1/T1)-(1/T2)]ΔH/R, where K1 and K2 are the binding constants at temperatures T1 and T2, and R is the gas constant. Furthermore, the change in free energy (ΔG) and entropy (ΔS) were calculated from the following equation: ΔG = -RT lnK = ΔH − TΔS.
Chain of HSA (P02768 25-609): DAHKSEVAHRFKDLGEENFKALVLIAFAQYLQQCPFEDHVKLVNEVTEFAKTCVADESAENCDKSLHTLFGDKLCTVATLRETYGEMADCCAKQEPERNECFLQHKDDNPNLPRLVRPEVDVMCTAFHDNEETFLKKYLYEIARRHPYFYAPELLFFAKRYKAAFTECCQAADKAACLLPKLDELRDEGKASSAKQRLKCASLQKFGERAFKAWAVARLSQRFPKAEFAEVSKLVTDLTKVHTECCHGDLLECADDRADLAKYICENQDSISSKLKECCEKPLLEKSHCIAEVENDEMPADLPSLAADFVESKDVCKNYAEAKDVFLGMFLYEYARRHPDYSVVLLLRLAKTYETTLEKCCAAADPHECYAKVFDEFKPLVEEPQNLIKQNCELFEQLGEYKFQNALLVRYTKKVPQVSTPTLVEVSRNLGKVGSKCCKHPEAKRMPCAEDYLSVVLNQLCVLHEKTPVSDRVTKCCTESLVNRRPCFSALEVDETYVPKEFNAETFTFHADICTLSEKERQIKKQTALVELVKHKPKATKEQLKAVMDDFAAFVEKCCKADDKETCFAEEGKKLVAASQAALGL
Human serum albumin (HSA) is the most abundant protein in the blood and cerebrospinal fluid and plays a fundamental role in the distribution of essential transition metal ions in the human body. Moreover, HSA is an important physiological transporter of the essential metal ions Cu^2+, and Zn^2+ in the bloodstream. […] The fluorescence spectrum is essentially that of tryptophan residue; contribution of tyrosine is relatively minor. In order to determine the protein binding affinity of complexes (1–4), tryptophan emission quenching experiments were carried out by adding the complexes in increasing concentration (0–50 μM) to HSA at two different temperatures and following the decrease in fluorescence intensities (Fig 6D). The results point out a good linearity at the two different temperatures. The binding constants, KSV, calculated from the Stern-Volmer equation are presented on Table 2.

Series [5] in a line: Water-octanol partition coefficient (stir-flask method). It is filed as physicochemical. Particulars: 24 h shaking, 37°C. The method, then: The water-octanol partition coefficients were determined by use of the stir-flask method. The complex was added in a mixture with equal volumes of water and octanol shaking by 24 h at 100 rpm and 37°C, samples were centrifuged for 5min at 300rpm, the organic and aqueous phases were separated. The concentration of drug in each phase was measured spectrophotometrically in order to determine values of P = [drug] (in octanol)/[drug] (in water).

The subject of series [6] is MDA-MB-231 cells. The experiment in a line: Cell morphology (inverted microscope). The class given is cell-based, human. Particulars: 24 h. How it is done:
(§4) Exponentially growing MDA-MB-231, MCF-7 or MCF-10A cells were harvested, counted and seeded (1x10^5 cells/mL) and plated on sterile 12-well plates for 24 h. Cells were allowed to grow at 37°C in 5% CO2 overnight and then, treated or not (control) with different concentrations of the complexes (1–4) for 2 and 24 h. Cell morphology was examined under an inverted microscope (Nikon, T5100) with amplification of 100×.
(§5) In this work the cytotoxicity of the complexes was evaluated against the MDA-MB-231, MCF-7 and MCF-10A cells by morphology, clonogenic and MTT assays (Fig 2, Table 1). To investigate the effects on cell morphology, the complexes were incubated with cells at concentrations of 25 and 50 μM for 24 h.

The subject of series [7] is MCF-10A cells. The experiment in a line: Cell morphology (inverted microscope). The class given is cell-based, human. Particulars: 24 h; for effect on cell morphology: 25 and 50 μM. The method, then: as §4, §5
Series [8] concerns MCF-7 cells. The series is described as follows: Cell morphology (inverted microscope). The class given is cell-based, human. Particulars: MCF-7, 25 and 50 μM, 24 h. The method, then: as §4, §5
Series [9] relates to DNA. Set-up: method as in not given. Particulars: order of magnitude reported for classical intercalators; ref not given; cited from earlier work.
The test system of series [10] is pBR322 plasmid DNA. The series is described as follows: Agarose gel electrophoresis of plasmid DNA. Particulars: Ri 0.50, 18 h, 37°C. The class given is binding. The method, then:
Ten microliters of pBR322 plasmid DNA in a Tris-HCl buffer were incubated at 37°C for 18 h with molar ratios between 0.12 and 0.5. After incubation, 5 μL of each sample was separated by electrophoresis in a 1% agarose gel for 45 min at 100V using a Tris borate–EDTA buffer (TBE) and stained with ethidium bromide ([…] ethidium bromide per 40 mL agarose gel mixture). Samples of DNA with DMSO were used as controls. The DNA bands were visualized as an image using a UV light transilluminator (ChemiDoc MP, BioRad Laboratories).
The influence of the compounds on the tertiary structure of DNA was determined by their ability to modify the electrophoretic mobility of forms of pBR322 plasmid DNA (Fig 6C). Agarose gel electrophoresis was performed using pBR322 plasmid DNA in the absence and presence of the complexes. […] In Ri 0.12 and 0.25 complexes (1–3) show the corresponding open circular, linear and super coiled form. […] This means that the degree of super helicity of the DNA molecules has been altered, in the same way as that described previously for other coordination platinum(II) and palladium (II) compounds containing 7-azaindolyl ligand [36].

As usually defined, the IC50 is the concentration that gives 50% inhibition. `N.N.[Cl][Pt][Cl]` [Cisplatin, reference compound]: the results for the concentration for half-maximal inhibition (IC50) in [1], in [2] and in series [3] were 2.43 ± 0.2 µM, 29.4 ± 0.85 µM and 79.18 ± 0.2 µM, respectively.
The Log P is the decadic logarithm of the partition coefficient of the neutral form, usually between octanol and water. On to `O=S(=O)([O-])[O-].[Ru+2].c1ccc(-c2ccccn2)nc1.c1ccc(P(CCCCP(c2ccccc2)c2ccccc2)c2ccccc2)cc1` [Complex (1), [Ru(SO4)(dppb)(bipy)]], for which the “Kq (HSA)” value in [4] (T 298) was 5.26e+13 M⁻¹ s⁻¹; in series [4] (T 310), 4.65e+13 M⁻¹ s⁻¹. Further, the entries for the “Ksv (HSA)” value in [4] (T 298) and in series [4] (T 310) were 5.04 ± 0.09 x10^4 M^-1 and 4.45 ± 0.18 x10^4 M^-1, respectively. The entries for the “n (number of binding sites, HSA)” value in series [4] (T 298) and in series [4] (T 310) were 1.10 and 1.06, respectively. The “ΔS (HSA)” value in series [4] stood at 72.70 J.mol^-1K. For the same compound, the “Log P” value in [5] amounted to 0.26 ± 0.06. For the same compound, the half-inhibitory concentration (IC50) was greater than 200 µM in series [1], 42.8 ± 5.02 µM in series [2] and greater than 200 µM in [3]. Further, the “effect on cell morphology” value is given as “did not alter the morphology” in [6] (MDA-MB-231, 25 and 50 μM); “altered the morphology” in [7]; “did not alter the morphology” in series [8].
Take `O=C([O-])C(=O)[O-].[Ru+2].c1ccc(-c2ccccn2)nc1.c1ccc(P(CCCCP(c2ccccc2)c2ccccc2)c2ccccc2)cc1` [Complex (3), [Ru(C2O4)(dppb)(bipy)]]: the “Kq (HSA)” value in series [4] (T 298) was 1.63e+13 M⁻¹ s⁻¹; in [4] (T 310) it was 1.702e+13 M⁻¹ s⁻¹. The “Ksv (HSA)” value in series [4] (T 298) is recorded as 1.56 ± 0.13 x10^4 M^-1; in series [4] (T 310), 1.63 ± 0.10 x10^4 M^-1. Besides, the “n (number of binding sites, HSA)” value worked out at 0.90 in series [4] (T 298) and 0.85 in series [4] (T 310). The “ΔS (HSA)” value in series [4] is listed as 80.00 J.mol^-1K. Besides, in series [5], the “Log P” value stood at 0.06 ± 0.008. Besides, the values for the IC50 in series [1], in [2] and in [3] were greater than 200 µM, 42.2 ± 2.37 µM and greater than 200 µM, respectively. Besides, the “effect on cell morphology” value is “did not alter the morphology” in series [6] (MDA-MB-231, 25 and 50 μM); “did not alter the morphology” in [8]. In addition, in series [7] (50 μM), the “effect on cell morphology / cell density” value was “reduced cell density”.
For the compound `[Cl-].[Cl-].[Ru+2].c1ccc(-c2ccccn2)nc1.c1ccc(P(CCCCP(c2ccccc2)c2ccccc2)c2ccccc2)cc1` [Precursor, cis-[RuCl2(dppb)(bipy)], reference compound], the “Log P” value in series [5] was -0.40 ± 0.01. The half-maximal inhibitory concentration (IC50) was greater than 200 µM in [1], 81.9 ± 7.87 µM in series [2] and greater than 200 µM in [3].
As to `CC[n+]1c(-c2ccccc2)c2cc(N)ccc2c2ccc(N)cc21` [ethidium bromide], the DNA binding constant in [9] was 10^6 to 10^7 M^-1.
For [Ru(CO3)(dppb)(bipy)] [Complex (2)], the “Kq (HSA)” value in series [4] (T 298) came to 2.935e+13 M⁻¹ s⁻¹; in [4] (T 310) it was 3.425e+13 M⁻¹ s⁻¹. The “Ksv (HSA)” value is 2.81 ± 0.12 x10^4 M^-1 in [4] (T 298) and 3.28 ± 0.14 x10^4 M^-1 in series [4] (T 310). Further, the figures for the “n (number of binding sites, HSA)” value in series [4] (T 298) and in series [4] (T 310) were 1.00 and 0.98, respectively. For the same compound, the “ΔS (HSA)” value in series [4] is recorded as 85.80 J.mol^-1K. Moreover, the log partition coefficient (Log P) in series [5] worked out at 0.55 ± 0.02. Besides, the figures for the IC50 in series [1], in [2] and in series [3] were 52.7 ± 0.62 µM, 31.5 ± 1.06 µM and greater than 200 µM, respectively. Also, the “effect on cell morphology” value in series [6] (MDA-MB-231, 50 μM) is recorded as “profoundly altered their morphology”; in [7], “did not alter the morphology”; in series [8] it was “did not alter the morphology”. Further, the “electrophoretic mobility of super coiled pBR322 band” value in series [10] is “increased the electrophoretic mobility”.
Consider [Ru(phen)2(dppz)]^2+, for which the DNA binding constant in series [9] was 10^6 to 10^7 M^-1.

Source of the values: paper PMC5595280, “Cytotoxicity and anti-tumor effects of new ruthenium complexes on triple negative breast cancer cells” (PLoS ONE, 2017).
